Measurements: US20150025012A1, “METHODS AND COMPOSITIONS FOR IDENTIFICATION, ASSESSMENT AND TREATMENT OF CANCERS ASSOCIATED WITH HEDGEHOG SIGNALING” (Infinity Pharmaceuticals, Inc., priority 2010, published 2015)
Structures can show the parent of a compound that is named as a salt.

Tests used:
hedgehog pathway = assay: C3H10T1/2 alkaline phosphatase assay (Shh-dependent osteoblast differentiation); assay type: cell-based; conditions: Mus musculus, C3H 10T1/2; HCl salt; sonic hedgehog 250 ng/ml; AP activity normalized against total protein; read-out: IC50 (antagonist of the hedgehog pathway)
Description: An exemplary assay to evaluate the activity of a hedgehog inhibitor is as follows. C3H10T1/2 cells differentiate into osteoblasts when contacted with the sonic hedgehog peptide (Shh-N). Upon differentiation, these osteoblasts produce high levels of alkaline phosphatase (AP) which can be measured in an enzymatic assay (Nakamura et al., 1997 BBRC 237: 465). Compounds that block the differentiation of C3H10T1/2 into osteoblasts (a Shh dependent event) can therefore be identified by a reduction in AP production (van der Horst et al., 2003 Bone 33: 899). The assay details are described below. Additional assays to ascertained the activity of hedgehog inhibitors, including IPI-926, are described in US 2009/0181997 by Grayzel et al., U.S. Ser. No. 61/327,373 and 61/331,365, filed on Apr. 23, 2010 and May 4, 2010, respectively; the entire contents of the aforesaid applications are incorporated herein by reference. […]
C3H10T1/2 cells were plated in 96 wells with a density of 8×10^3 cells/well. […] After incubating for 30 min at 37° C., the plates were read on an Envision plate reader at 405 nm. Total protein was quantified with a BCA protein assay kit from Pierce according to manufacturer's instructions. […]

human SHh expression = assay: Hedgehog ligand expression in bladder cancer cells after chemotherapy; assay type: cell-based; conditions: 24, 48, 72 hours, highest after 144 hours
Bx-PC3 tumors = assay: Growth of Bx-PC3 tumors in mice; assay type: in vivo; conditions: single agents and combination
Description: Bevacizumab, a monoclonal antibody, exerts its activity by neutralizing VEGF, a factor important of the proliferation and survival of endothelial cells. […] In the same study, the relative effect of these agents was explored by measuring the mRNA expression of PECAM-1, a marker of endothelial cells and RGS5, a marker of pericytes. […] The role of the vasculature and its supporting pericyte population in the mechanism of action of IPI-926 continues to be explored.
For in vivo studies, tumors were grown in male NCR-nu/nu mice by subcutaneous injection of 5×10^6 cells. Tumor growth was monitored using calipers. When tumors reached an approximate size of 200 mm^3, tumor bearing animals were randomized into treatment arms and administered agents or vehicles as described.

CC1=C2C[C@H]3[C@@H](CC[C@@H]4C[C@H](NS(C)(=O)=O)CC[C@@]43C)[C@@H]2CC[C@@]2(C1)O[C@@H]1C[C@H](C)CN[C@H]1[C@H]2C [IPI-926 (HCl salt)]
IC50 (hedgehog pathway): < 20 nM

COc1cccc2c1C(=O)c1c(O)c3c(c(O)c1C2=O)C[C@@](O)(C(=O)CO)C[C@@H]3O[C@H]1C[C@H](N)[C@H](O)[C@H](C)O1 [doxorubicin]
human SHh expression (human SHh expression): increase

Nc1ccn([C@@H]2O[C@H](CO)[C@@H](O)C2(F)F)c(=O)n1 [gemcitabine]
human SHh expression (human SHh expression): increase

Bevacizumab: a monoclonal antibody, exerts its activity by neutralizing VEGF
activity on the growth of Bx-PC3 tumors (Bx-PC3 tumors): approximately the same single agent activity
